US20230279482A1, “COMPOSITIONS, METHODS AND USES FOR QUANTIFYING TRANSCRIPTION AND BIOSENSING OF SMALL MOLECULES USING A NOVEL TYPE VI CRISPR-CAS ASSAY” (THE REGENTS OF THE UNIVERSITY OF COLORADO, A BODY CORPORATE, priority 2020, published 2023)
Like-named read-outs stand apart in the source and are kept apart here.

What was measured:
[1] = tested on: bacteria; conditions: cited from earlier work
[2] = tested on: guanine riboswitch xpt/pbuE*6U; test: SPRINT compound screen on guanine riboswitch; assay type: biochemical; conditions: 1 μM, FIG. 10
Procedure: Briefly, the transcriptional response of the guanine riboswitch xpt/pbuE*6U to 30 different compounds was measured at two different concentrations each (FIG. 9A and FIG. 10). The concentrations used were 10 μM and 1 mM for most compounds. The signal that was obtained from control experiments with the solvents DMSO or water was subtracted from all values.

[3] = tested on: guanine riboswitch; conditions: as low as; cited from earlier work
[4] = tested on: SPRINT assay without riboswitch (constitutively transcribed Cas13a target); test: SPRINT control screen with constitutive promoter template (PAINS identification); conditions: FIG. 9B
Procedure: The master mix was gently mixed by pipetting up and down and incubated at 37° C. for 15 minutes to allow binding of crRNA to Cas13a protein and the microwell plate was prepared by adding 3 μL of 10× ligand to the wells. The reaction was initiated by addition of rNTPs to the master mix to a concentration of 20 μM and then 27 μL of the complete master mix were added to each well and pipetted up and down to mix with the ligand in the wells. The plate was covered with an optical adhesive film to prevent evaporation of the sample while taking fluorescence measurements in a plate reader that was preheated to 37° C.

[5] = biological target: T1, tetR (Escherichia coli, UniProt P04483); conditions: read-out: previously reported range; cited from earlier work
[6] = biological target: T1, tetR; test: biochemical
Procedure: In other exemplary methods, reactions with allosteric transcription factors (aTFs), ROSALIND reagent buffer (10× buffer containing, for assays contemplated herein, but not limited to: 400 mM Tris-HCl, pH 8.0, 200 mM NaCl, 20 mM spermidine, 100 mM DTT and 80 mM MgCl2) were used. The buffer was prepared fresh or stored as single-use aliquots at −80° C. […] The final concentration of the aTF monomers was either 2.5 μM tetR or 10 μM smtB. The master mix was incubated for 15 minutes at 37° C. which allows the aTFs to bind to the operator sequence.
In another exemplary method, bacterial transcription can be regulated by allosteric transcription factors (aTFs), such as activators or repressors, which have previously been used for small molecule detection. Another system (“ROSALIND”) enabled rapid detection of compounds via aTFs. […] The ROSALIND buffer system differs from the SPRINT or SHERLOCK buffer. Therefore, it was tested whether aTF-based ROSALIND reactions could be integrated with the Cas13a-based detection method. To simplify the system, the inorganic pyrophosphatase (IPPase) enzyme was first removed from the ROSALIND system. IPPase was used in transcription reactions to degrade pyrophosphate which was a reaction product of the RNA polymerase and can inhibit the reaction. […] Adaptions included reducing the concentrations of rNTP from 2.85 mM to 40 μM, DNA template from 25 to 15 nM, and T7 RNAP from 10 to 6.7 ng/μL.
The responses of the de-repressors tetR and smtB were measured with SPRINT.

[7] = biological target: T2, bacterial RNAP (Escherichia coli, UniProt P0A8V2); conditions: cited from earlier work
[8] = biological target: T2, bacterial RNAP; test: SPRINT rifampicin titration with constitutive promoter; assay type: biochemical, E. coli
Target sequence in this assay (P0A8V2 whole entry): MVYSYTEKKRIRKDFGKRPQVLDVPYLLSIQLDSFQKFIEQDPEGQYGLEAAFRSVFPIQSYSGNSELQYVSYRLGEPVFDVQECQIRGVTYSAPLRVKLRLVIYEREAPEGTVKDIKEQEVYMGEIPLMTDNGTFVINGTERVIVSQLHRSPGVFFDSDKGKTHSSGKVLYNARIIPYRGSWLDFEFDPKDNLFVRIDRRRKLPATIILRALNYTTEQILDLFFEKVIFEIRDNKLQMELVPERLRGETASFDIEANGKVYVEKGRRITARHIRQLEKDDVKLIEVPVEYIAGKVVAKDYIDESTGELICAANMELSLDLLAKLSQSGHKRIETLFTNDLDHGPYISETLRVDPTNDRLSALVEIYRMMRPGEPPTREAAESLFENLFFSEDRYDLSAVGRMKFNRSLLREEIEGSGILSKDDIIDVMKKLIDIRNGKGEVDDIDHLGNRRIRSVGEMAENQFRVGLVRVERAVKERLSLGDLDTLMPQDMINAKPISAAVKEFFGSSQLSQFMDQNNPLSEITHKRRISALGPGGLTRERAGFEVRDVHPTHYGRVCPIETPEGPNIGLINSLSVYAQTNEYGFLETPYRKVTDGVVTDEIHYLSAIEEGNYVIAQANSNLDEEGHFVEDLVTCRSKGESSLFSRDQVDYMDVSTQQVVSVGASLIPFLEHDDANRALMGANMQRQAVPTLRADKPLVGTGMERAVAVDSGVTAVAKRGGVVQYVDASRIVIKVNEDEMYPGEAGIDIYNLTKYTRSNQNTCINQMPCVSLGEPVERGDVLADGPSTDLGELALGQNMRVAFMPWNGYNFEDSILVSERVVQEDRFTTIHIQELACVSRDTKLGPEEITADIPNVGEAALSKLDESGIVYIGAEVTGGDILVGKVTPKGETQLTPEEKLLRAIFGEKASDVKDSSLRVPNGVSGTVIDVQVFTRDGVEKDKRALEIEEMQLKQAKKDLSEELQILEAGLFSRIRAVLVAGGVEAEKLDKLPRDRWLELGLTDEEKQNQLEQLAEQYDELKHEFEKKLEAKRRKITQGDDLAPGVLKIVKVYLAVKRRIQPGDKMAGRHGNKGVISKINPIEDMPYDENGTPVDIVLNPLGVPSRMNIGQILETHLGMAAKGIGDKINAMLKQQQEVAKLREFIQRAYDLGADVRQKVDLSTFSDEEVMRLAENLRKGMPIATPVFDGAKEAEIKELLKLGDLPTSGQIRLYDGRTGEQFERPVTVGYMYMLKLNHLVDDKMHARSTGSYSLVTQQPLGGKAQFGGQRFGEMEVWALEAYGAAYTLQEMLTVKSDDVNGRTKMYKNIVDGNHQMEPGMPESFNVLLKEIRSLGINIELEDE
Target sequence in this assay (P0A8T7 whole entry partner): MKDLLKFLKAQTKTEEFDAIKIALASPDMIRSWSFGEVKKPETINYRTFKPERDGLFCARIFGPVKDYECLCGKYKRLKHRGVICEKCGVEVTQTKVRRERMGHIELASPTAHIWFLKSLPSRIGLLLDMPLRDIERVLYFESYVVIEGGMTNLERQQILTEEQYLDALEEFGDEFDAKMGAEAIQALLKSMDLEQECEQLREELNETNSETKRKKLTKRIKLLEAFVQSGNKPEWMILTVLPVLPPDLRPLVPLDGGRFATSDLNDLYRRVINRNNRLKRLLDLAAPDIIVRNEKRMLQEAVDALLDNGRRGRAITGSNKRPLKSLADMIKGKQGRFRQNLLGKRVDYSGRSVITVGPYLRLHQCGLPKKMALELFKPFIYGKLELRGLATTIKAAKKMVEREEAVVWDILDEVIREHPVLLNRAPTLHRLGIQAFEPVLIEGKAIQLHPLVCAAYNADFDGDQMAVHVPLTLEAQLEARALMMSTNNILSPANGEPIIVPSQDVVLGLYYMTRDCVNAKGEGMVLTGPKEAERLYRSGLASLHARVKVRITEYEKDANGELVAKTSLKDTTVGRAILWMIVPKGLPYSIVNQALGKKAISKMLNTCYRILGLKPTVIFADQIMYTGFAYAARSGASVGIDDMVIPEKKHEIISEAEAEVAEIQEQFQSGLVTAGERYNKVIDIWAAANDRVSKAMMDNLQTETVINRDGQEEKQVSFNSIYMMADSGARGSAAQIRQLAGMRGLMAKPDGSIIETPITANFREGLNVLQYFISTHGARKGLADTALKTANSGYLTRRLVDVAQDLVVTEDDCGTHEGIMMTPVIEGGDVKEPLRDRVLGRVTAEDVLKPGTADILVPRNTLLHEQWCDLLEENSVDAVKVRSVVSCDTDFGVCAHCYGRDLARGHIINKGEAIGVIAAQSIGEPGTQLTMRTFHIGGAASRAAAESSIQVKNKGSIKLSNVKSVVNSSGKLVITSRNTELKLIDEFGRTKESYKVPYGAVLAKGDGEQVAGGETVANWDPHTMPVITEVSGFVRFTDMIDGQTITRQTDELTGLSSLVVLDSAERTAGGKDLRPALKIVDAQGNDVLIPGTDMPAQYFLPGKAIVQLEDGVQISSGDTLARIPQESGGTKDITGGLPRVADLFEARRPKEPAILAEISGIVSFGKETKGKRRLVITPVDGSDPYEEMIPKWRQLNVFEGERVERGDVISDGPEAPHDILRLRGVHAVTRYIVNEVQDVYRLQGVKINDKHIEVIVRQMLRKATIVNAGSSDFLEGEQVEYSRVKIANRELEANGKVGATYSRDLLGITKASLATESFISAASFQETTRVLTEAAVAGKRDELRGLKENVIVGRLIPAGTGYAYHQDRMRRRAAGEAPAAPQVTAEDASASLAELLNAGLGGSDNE
Target sequence in this assay (P0A7Z4 whole entry partner): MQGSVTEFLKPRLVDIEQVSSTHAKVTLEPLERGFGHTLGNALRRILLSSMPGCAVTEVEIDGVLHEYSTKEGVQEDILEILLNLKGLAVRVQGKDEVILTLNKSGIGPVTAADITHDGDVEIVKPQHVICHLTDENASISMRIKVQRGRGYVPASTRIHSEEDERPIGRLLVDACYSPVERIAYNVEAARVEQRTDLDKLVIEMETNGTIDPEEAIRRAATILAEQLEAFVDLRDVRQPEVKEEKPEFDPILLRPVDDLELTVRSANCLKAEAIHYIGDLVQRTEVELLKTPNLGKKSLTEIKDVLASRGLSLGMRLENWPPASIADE
Target sequence in this assay (P0A800 whole entry partner): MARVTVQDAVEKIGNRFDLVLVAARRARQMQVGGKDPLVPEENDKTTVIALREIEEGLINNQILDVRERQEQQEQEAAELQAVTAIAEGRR
Target sequence in this assay (P00579 whole entry partner): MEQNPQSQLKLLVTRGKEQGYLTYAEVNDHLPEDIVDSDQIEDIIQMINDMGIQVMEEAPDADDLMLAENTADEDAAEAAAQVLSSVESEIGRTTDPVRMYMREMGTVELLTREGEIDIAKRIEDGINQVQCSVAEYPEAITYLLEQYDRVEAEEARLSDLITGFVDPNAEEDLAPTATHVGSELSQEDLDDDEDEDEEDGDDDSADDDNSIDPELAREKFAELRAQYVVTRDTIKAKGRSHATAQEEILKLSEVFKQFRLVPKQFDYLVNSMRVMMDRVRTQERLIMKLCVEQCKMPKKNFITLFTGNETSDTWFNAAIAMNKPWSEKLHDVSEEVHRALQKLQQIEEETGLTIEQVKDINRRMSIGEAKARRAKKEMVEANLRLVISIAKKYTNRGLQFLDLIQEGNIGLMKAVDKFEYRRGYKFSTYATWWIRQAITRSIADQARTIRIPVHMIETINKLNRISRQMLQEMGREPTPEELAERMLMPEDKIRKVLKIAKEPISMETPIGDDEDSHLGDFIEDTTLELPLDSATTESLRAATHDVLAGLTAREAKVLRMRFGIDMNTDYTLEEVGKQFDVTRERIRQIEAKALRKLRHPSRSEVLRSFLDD

T1 sequence (P04483 whole entry): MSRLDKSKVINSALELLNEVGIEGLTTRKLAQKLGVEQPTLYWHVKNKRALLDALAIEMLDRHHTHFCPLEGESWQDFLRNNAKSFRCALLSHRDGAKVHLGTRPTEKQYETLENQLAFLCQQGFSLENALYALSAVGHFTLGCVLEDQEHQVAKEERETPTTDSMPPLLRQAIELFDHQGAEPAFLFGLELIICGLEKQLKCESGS

Compound: Nc1nc(N)c(N)c(=O)[nH]1 [2,5,6-TAP]
- concentration with bactericidal properties [1]: 8 mM
- transcriptional activation at low concentration [2]: only slightly activated transcription
- concentration at which it binds the guanine riboswitch [3]: ≥ 100 nM
- effect on enzymatic activity of the SPRINT assay at high concentration ([4]; 100 μM, FIG. 10): completely shut down enzymatic activity
- interference with SPRINT assay (PAINS) ([4]; constitutive promoter template): interfering compounds

Compound: Cc1c2c(c(O)c3c(O)cccc13)C(=O)[C@]1(O)C(=O)C(C(N)=O)=C(O)[C@@H](N(C)C)[C@@H]1C2 [anhydrotetracycline]
- EC50 [5]: 1000 to 2500 nM
- EC50 [6]: 1900 ± 200 nM

Compound: CO[C@H]1/C=C/O[C@@]2(C)Oc3c(C)c(O)c4c(O)c(c(/C=N/N5CCN(C)CC5)c(O)c4c3C2=O)NC(=O)/C(C)=C\C=C\[C@H](C)[C@H](O)[C@@H](C)[C@@H](O)[C@@H](C)[C@H](OC(C)=O)[C@@H]1C [rifampicin]
- Kd [7]: 3 nM
- IC50 [8]: 5.9 ± 0.6 nM
